Data on one molecule can be found in PMC11077529, “All-photonic kinase inhibitors: light-controlled release-and-report inhibition” (Chemical Science, 2024).

This assay concerns the target lymphocyte-specific protein tyrosine kinase (LCK) (Homo sapiens, UniProt P06239). Put plainly: ADP-Glo kinase assay; also fluorescence increase at […] nm on binding LCK after decaging of 3e, reversed by TC-S7003. The class given is biochemical. (In general: ADP-Glo turns the ADP formed in a reaction into a luminescent signal.)

Sequence of lymphocyte-specific protein tyrosine kinase (LCK) (P06239 2-509): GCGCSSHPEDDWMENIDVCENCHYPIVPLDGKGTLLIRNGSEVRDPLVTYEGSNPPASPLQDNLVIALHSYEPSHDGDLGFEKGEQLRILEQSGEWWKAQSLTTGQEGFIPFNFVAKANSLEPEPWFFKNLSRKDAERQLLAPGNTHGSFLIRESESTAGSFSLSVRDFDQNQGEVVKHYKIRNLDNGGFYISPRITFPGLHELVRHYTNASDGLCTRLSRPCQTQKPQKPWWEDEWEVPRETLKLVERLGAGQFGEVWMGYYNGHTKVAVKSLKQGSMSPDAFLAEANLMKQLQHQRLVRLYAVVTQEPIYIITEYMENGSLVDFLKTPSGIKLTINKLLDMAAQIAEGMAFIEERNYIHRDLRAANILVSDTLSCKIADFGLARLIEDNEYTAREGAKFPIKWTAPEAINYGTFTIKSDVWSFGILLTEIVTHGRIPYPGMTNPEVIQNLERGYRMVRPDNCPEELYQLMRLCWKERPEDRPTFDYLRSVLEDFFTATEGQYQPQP

A word on the IC50: it is the concentration that gives 50% inhibition. Low readings indicate higher potency, high ones lower potency. The molecule `CC(C)n1nc(C#Cc2ccc3cc(N(C)C)ccc3c2)c2c(N)ncnc21` [compound 1, LCK inhibitor 1] showed a half-maximal inhibitory concentration (IC50) of 2400 nM.
